Patent US20250360106A1, “PREVENTING IMMUNOTHERAPY-INDUCED EDEMA USING ANGIOTENSIN RECEPTOR BLOCKERS” (The General Hospital Corporation, priority 2022, published 2025)
“Also recorded” adds a separate entry of the source.

Legend:
[1] = tested on: glioblastoma; experiment: Survival of mice with glioblastoma under losartan and ICB (summary statement); assay type: in vivo; details: losartan with ICB, in lieu of corticosteroids
[2] = tested on: GL261; experiment: Survival study, GL261 model with standard of care (resection, radiation, temozolomide); assay type: in vivo, mice
Method: (§1) Brain tumor implantation in the forebrain (50,000-100,000 cells), cranial window surgery and tumor resection as part of the standard of care treatment regimen were conducted as previously described (16, 43, 45). Mice were allowed to recover for 10-14 days after cranial window surgery prior to tumor implantation, and for 2 days after resection surgery (as part of the standard of care or bihemispheric model) prior to treatment initiation.

[3] = tested on: GL261; experiment: Solid stress by 3D micro-ultrasound tissue deformation, GL261; assay type: in vivo, mice; details: 2 weeks of losartan, n=4
Excerpt: Tumor size was visualized by 3D micro-ultrasound in anesthetized mice through the transparent cranial windows (45). Ultrasound was also used to measure tumor deformation as a readout of solid stress, following previous methods (14).

[4] = tested on: GL261; experiment: Survival study, GL261 model; assay type: in vivo, mice; details: losartan with anti-PD1, no detectable tumors over 100 days
Method: as §1

[5] = tested on: hyaluronic acid (HA); experiment: Hyaluronic acid immunofluorescent imaging, GL261; assay type: in vivo, mice; details: 2 weeks of losartan, n=5
Excerpt: (§2) Brains with tumors were prepped and stained for histology as previously described (45) and imaged on a TissueFAXS (TissueGnostics) slide scanner at the Ragon Institute, Massachusetts Institute of Technology.

[6] = tested on: PD-L1; experiment: PD-L1 immunohistochemistry, GL261; assay type: in vivo, mice; details: 2 weeks of losartan, n=11-13
Excerpt: as §2

[7] = tested on: MT-MMP-1 and -2 (Mt1, Mt2); experiment: scRNASeq of tumor endothelial cells (TECs) from GL261 tumors; assay type: in vivo, mice
Method: Following the single-cell suspension techniques of flow cytometry, tumor cells were blocked in 1% bovine serum albumin in phosphate-buffered saline solution (1% BSA/PBS). Cell suspensions were subsequently stained for flow cytometry for 30 min at 4° C. using antibodies specific for CD45 [30F11]-VioBlue from Miltenyi, CD3 [145-2C11]-PE from Biolegends, and CD 31 [MEC 13.3]-PE from BD Biosciences. Cells were washed with cold PBS, and then incubated for 15 min in 1.5 mL of 1% BSA/PBS containing 1 uM calcein AM (Life Technologies) and 0.33 uM TO-PRO-3 iodide (Life Technologies). Sorting was performed with the FACS Aria Fusion Special Order System (Becton Dickinson) using 488 nm (calcein AM, 530/30 filter; CD3-PE, 585/42 filter), 640 nm (TO-PRO-3, 670/14 filter), and 405 nm (CD45-VioBlue, 450/50 filter) lasers. […]
Sequencing data was processed from raw reads to gene expression matrices, starting with fbcl2fastq (v2.20.0) to generate demultiplexed FASTQ files. Bowtie was used to align the resulting paired-end scRNA-seq reads to the mouse transcriptome (mm10). Gene expression levels were quantified as transcripts-per-million (TPM) by running RSEM (v1.2.19) in paired-end mode. […]

[8] = tested on: GL261 tumor blood vessels; experiment: OCT imaging of tumor perfusion; assay type: in vivo, mice; details: vs PBS-treated controls
Excerpt: In vivo imaging of perfused vessels was achieved via a custom-built optical coherence tomography (OCT) system as previously described (15). […] A depth-resolved profile was generated each day, and the raw tomograms were processed as previously described. Images across multiple days were co-registered using the Scale-invariant feature transform (SIFT) algorithm in ImageJ and Python.

[9] = tested on: GL261 tumors; experiment: Flow cytometry of tumors and cervical draining lymph nodes, GL261; assay type: in vivo, mice
Method: Single-cell suspensions were prepared from tumors and cervical draining lymph nodes that were isolated and dissected under stereotactic microscope. Cells were stained and processed (on a BD LSRFortessa X-20 Cell analyzer) and analyzed (FlowJo, Tree Star) as previously described (16). The following antibodies from BD Biosciences, EBioscience, and BioLegend were used at 1:200 dilutions: CD45-BV605, CD3-BV785, CD4-BV640, CD8-BV711A, NK1.1-APC; FoxP3-BV421; PD1-PerCP710A; TIGIT-PE Cy7; TIM3-PE; CD19-BV510; K167-FITC; GranzymeB-PE Cy7; CD11 b-BV785; MHCII-BV605; F4/80-PerCP Cy5.5; CX3CR1-APC; CD206-PE CY7; CD86-BV650; CCR2-PE; GR1-AF700.

[10] = tested on: 005 GSC; experiment: Survival study, 005 GSC model; assay type: in vivo, mice; details: losartan with anti-PD1, no detectable tumors over 100 days
Method: as §1

[11] = tested on: GL261 tumors; experiment: Tumor edema by wet/dry weight (water content), GL261 model; assay type: in vivo; details: mice under anti-PD1 treatment
Method: (§3) Edema in the tumor was assessed immediately after animal sacrifice via wet/dry weight analysis to determine the water content as previously described (43).

[12] = tested on: 005 GSC; experiment: Tumor edema by wet/dry weight, 005 GSC model; assay type: in vivo, mice; details: after 2 weeks of treatment
Method: as §3

[13] = tested on: CT2A; experiment: Survival study, CT2A model; assay type: in vivo, mice
Method: as §1

[14] = tested on: GBM; details: in combination with the standard of care; cited from earlier work
[15] = tested on: GL261 tumors; experiment: Bulk RNASeq of GL261 tumors; assay type: in vivo, mice
[16] = tested on: GBM patients; details: human, in vivo; cited from earlier work
[17] = tested on: recurrent GBM patient; experiment: MR T2-FLAIR imaging of a recurrent GBM patient before and after anti-PD-L1; assay type: in vivo, human; details: after 4 months of anti-PD-L1 treatment; NCT02336165
[18] = tested on: GBM cells; details: at physiological levels; cited from earlier work
[19] = tested on: GBM patients; experiment: Patient overall survival, Kaplan-Meier (trial NCT00662506); assay type: in vivo, human; details: cediranib, patients not on ASIs; n=33
[20] = GL261, standard of care + anti-PD1 + losartan

Compound: CCCCc1nc(Cl)c(CO)n1Cc1ccc(-c2ccccc2-c2nn[nH]n2)cc1 [losartan]
- mice cured [1]: 20%
- OS under the standard of care without ICB ([2]; GBM mouse models, losartan not given in conjunction with ICB): does not improve OS
- long-term survivors [2, 20]: 43%
- tumor re-challenge of long-term survivors [2, 20]: rejected tumor re-challenge
- mice cured ([2]; losartan with ICB in combination with standard of care treatment): 40%
- solid stress (tissue deformation) [3]: reduces
- long-term survivors (LTS) [4]: 15%
- HA levels [5]: reduces
- PD-L1 protein expression [6]: reduces
- TEC MT-MMP-1 and -2 (Mt1, Mt2) expression [7]: downregulating
- tumor vessel normalization and perfusion [8]: greater overall perfusion
- myeloid cells in tumors [9]: fewer myeloid cells
- long-term survivors (LTS) [10]: 22%
- anti-PD1-induced edema [11]: decreases anti-PD1-induced edema
- anti-PD1-induced edema [12]: decreases anti-PD1-induced edema
- effect of adding losartan to anti-PD1 on survival [13]: failed to further enhance ICB efficacy
- median OS [14]: failed to improve median OS
- global and pro-tumor (M2-like) TAM-associated genes ([15]; bulk RNASeq): reduced the expression
- microglia-associated genes ([15]; bulk RNASeq): upregulated
- gene expression related to ECM, angiogenesis, immunosuppression, and hypoxia ([15]; vs controls, n=3): significantly reduced

Compound: bevacizumab
- OS in GBM patients under ICB therapy [16]: failed to improve OS

Compound: MEDI4763: anti-PD-L1 (NCT02336165) given to a recurrent GBM patient
- edema on MR T2-FLAIR images [17]: increased edema

Compound: CNC(=O)[C@H](Cc1c[nH]c2ccccc12)NC(=O)[C@@H](CC(=O)NO)CC(C)C [Ilomastat]
- toxicity to GBM cells [18]: non-toxic
- anti-PD1-induced edema [11]: controls anti-PD1-induced edema comparably to losartan; also recorded: phenocopied the ability of losartan to prevent anti-PD1-induced edema

Compound: COc1cc2c(Oc3ccc4[nH]c(C)cc4c3F)ncnc2cc1OCCCN1CCCC1 [cediranib]
- overall survival [19]: 527 days
